Results: patent US20250084041A1, “ANTIMICROBIAL COMPOUNDS AND METHODS” (Curza Global, LLC, priority 2021, published 2025)
Where a name gives a salt, the structure may show the parent alone. Read-outs that look alike come from different tables or passages of the source.

Columns and labels:
S. aureus (Sa) = assay: Broth microdilution MIC, S. aureus; assay type: cell-based; conditions: Staphylococcus aureus, read-out: Sa + bicarb 25 (MIC)
Description: (§1) A certified BSL-2 laboratory was used for testing. Compounds were evaluated using the broth microdilution minimum inhibitory concentration (MIC) and minimum bactericidal concentration (MBC) assays defined by Clinical and Laboratory Standards Institute (CLSI) in the M26-A guideline against S. aureus (Sa), E. coli (Ec), K. pneumoniae (Kp), A. baumannii (Ab), E. faecalis (Ef) and P. aeruginosa (Pa).
(§2) MICs were determined using the Clinical Laboratory and Standards Institute (CLSI) Broth Microdilution Method with slight modification. Clinical and Laboratory Standards Institute (2012). “Methods for dilution antimicrobial susceptibility tests for bacteria that grow aerobically; approved standard, 9th ed. M07-A9. Clinical and Laboratory Standards Institute, Wayne, PA.” Serial two-fold dilutions of compounds are prepared in sterile clear round-bottom 96-well plates.
(§3) To prepare microdilution trays, two-fold dilutions of antimicrobial agent are prepared in growth medium: Cation-Adjusted Mueller-Hinton Broth (CAMHB), or CAMHB supplemented with sodium bicarbonate (25 mM final concentration prepared from a 1.0 M stock solution) or CAMHB supplemented with heat inactivated human serum (Fisher Cat. #BP2657100) 0-50% by adding 200 μL of the highest concentration to be tested (64 μg/mL, for example) in row A, mixing and transferring 100 μL from row A to 100 μL growth medium in row B, then repeating the mixing and transferring through row H of the 96-well plate, discarding the excess 100 μL remaining. This slight modification to the CLSI protocol enables evaluation of MICs for 3 compounds per plate in triplicate, albeit with only 8 compound dilutions (CLSI protocol enables 2 compounds in triplicate with 10 dilutions). Bacterial suspensions are added to a final concentration of 5×10^4 CFU/well by adding 5 μL of a 1:10 dilution of a 0.5 McFarland suspension (1×10^8 CFU/mL) for each bacterium evaluated. Bacterial suspensions were prepared using the growth method described by CLSI. Well-isolated colonies (3-5 from an agar plate) were selected using a sterile loop and used to inoculate a tube containing 4 mL of CAMHB. The cultures are incubated at 35±2° C. until it achieves or exceeds the turbidity of the 0.5 McFarland standard, determined by measuring A600nm (usually two to six hours). When growth exceeds a 0.5 McFarland standard, the turbidity is adjusted with broth to be equivalent to a 0.5 McFarland standard.

A. baumannii (Ab) = assay: Broth microdilution MIC, A. baumannii; assay type: cell-based; conditions: Acinetobacter baumannii, read-out: Ab + bicarb 25 (MIC)
Description: as §1, §2, §3

E. coli (Ec) = assay: Broth microdilution MIC, E. coli; assay type: cell-based; conditions: Escherichia coli, read-out: E. coli + bicarb 25 (MIC)
Description: as §1, §2, §3

E. faecalis (Ef) = assay: Broth microdilution MIC, E. faecalis; assay type: cell-based; conditions: Enterococcus faecalis, read-out: Ef + bicarb 25 (MIC)
Description: as §1, §2, §3

E. coli S30 extract = assay: E. coli S30 extract: inhibition of bacterial protein synthesis (luciferase); assay type: biochemical; conditions: 37° C. 1 hour
Description: E. coli S30 extract: Inhibition of bacterial protein synthesis was determined using the E. coli S30 Extract System for Circular DNA (Promega catalog #L-2010) and Luciferase Assay Reagent (Promega catalog #E1500) with slight modifications to a published protocol. Fyfe, C., Sutcliffe, J. A. and Grossman, T. H. (2012) “Development and characterization of a Pseudomonas aeruginosa in vitro coupled transcription-translation assay system for evaluation of translation inhibitors” J. Microbiol. Methods 90(3), 256-261.
Compounds were serial diluted in 0.5 mL microcentrifuge tubes by mixing and transferring 50 μL from the highest concentration to 50 μL of water, mixing and transferring 50 μL of this 2-fold dilution to 50 μL of water. This mixing and transferring was repeated so that there are a total of 8 tubes with serial dilutions of compound at 10× the desired screening concentration that are ultimately diluted to 1× by the addition of S30 luciferase synthesis mixture. Serial dilutions of compounds were added (2 μL) to wells in a black round bottom 96-well plate. Water (2 μL) was used as a “no inhibitor” control in 4 wells/plate. No DNA control reaction mixture (20 μL; see below) was used as a control in 4 wells/plate for background luminescence. S30 luciferase synthesis mixture (18 μL; see below) was added to wells with compounds or water mixture and incubated at 37° C. for 1 hour. Reactions were stopped by transferring to 4° C. refrigerator for 5 minutes then 25 μL of luciferase activity mix was added. Luminescence was measured using a BioTek Synergy HTX plate reader. % Inhibition was determined relative to no inhibitor controls.
• 445 μL S30 extract, circular • 712 μL S30 Premix without amino acids • 4.45 μL pBESTluc™ DNA (1 μg/μL) • 78 μL complete amino acid mixture • 267 μL water
• 20 μL S30 extract, circular • 32 μL S30 Premix without amino acids • 7 μL complete amino acid mixture • 21 μL water

P. aeruginosa (Pa) = assay: Broth microdilution MIC, P. aeruginosa; assay type: cell-based; conditions: Pseudomonas aeruginosa, read-out: Pa + bicarb 25 (MIC)
Description: as §1, §2, §3

[1] = target: Rabbit Reticulocyte Lysate; assay: Rabbit Reticulocyte Lysate: inhibition of eukaryotic protein synthesis (luciferase); assay type: biochemical; conditions: 30° C. 90 minutes, read-out: Retic. IC50
Description: Inhibition of eukaryotic protein synthesis was determined using the Rabbit Reticulocyte Lysate System, Nuclease-Treated from Promega (catalog #L-4960) with slight modifications to the manufacturer's protocol. Compounds were serial diluted in 0.5 mL microcentrifuge tubes by mixing and transferring 50 μL from the highest concentration to 50 μL of water, mixing and transferring 50 μL of this 2-fold dilution to 50 μL of water. This mixing and transferring was repeated so that there are a total of 8 tubes with serial dilutions of compound at 10× the desired screening concentration that are ultimately diluted to 1× by the addition of rabbit reticulocyte luciferase synthesis mixture. Serial dilutions of compounds were added ([…]) to wells in a black round bottom 96-well plate. Water (2.5 μL) was used as a “no inhibitor” control in 4 wells/plate. No RNA control reaction mixture ([…]; see below) was used as a control in 4 wells/plate for background luminescence. Rabbit reticulocyte luciferase synthesis mixture (22.5 μL; see below) was added to wells with compounds or water mixture and incubated at 30° C. for 90 minutes. Luciferase assay reagent (25 μL) was added with luminescence measured using a BioTek Synergy HTX plate reader. % Inhibition was determined relative to no inhibitor controls.
• 1,000 μL rabbit reticulocyte lysate • 5.7 μL Luciferase Control RNA (1 μg/μL) • 26 μL complete amino acid mixture • 395 μL water
• 70 μL rabbit reticulocyte lysate • 2 μL complete amino acid mixture • 28 μL water

[2] = S. aureus, CAMHB supplemented with sodium bicarbonate 25 mM
[3] = A. baumannii, CAMHB supplemented with sodium bicarbonate 25 mM
[4] = E. coli, CAMHB supplemented with sodium bicarbonate 25 mM
[5] = E. faecalis, CAMHB supplemented with sodium bicarbonate 25 mM
[6] = P. aeruginosa, CAMHB supplemented with sodium bicarbonate 25 mM

| SMILES | MIC (S. aureus (Sa)) | MIC (A. baumannii (Ab)) | MIC (E. coli (Ec)) | MIC (E. faecalis (Ef)) | IC50 (E. coli S30 extract) | MIC (P. aeruginosa (Pa)) | IC50 [1] | MIC (S. aureus (Sa); [2]) | MIC (A. baumannii (Ab); [3]) | MIC (E. coli (Ec); [4]) | MIC (E. faecalis (Ef); [5]) | MIC (P. aeruginosa (Pa); [6]) |
| --- | --- | --- | --- | --- | --- | --- | --- | --- | --- | --- | --- | --- |
| CC(C)(N)C(=O)N1CCN(C(=O)Nc2ccn(C3CCC(CN[C@H]4CC[C@H](N)CC4)CC3)c(=O)n2)CC1 (mixture of isomers) [Compound 11, 4-(2-Amino-2-methylpropanoyl)-N-(1-(4-(((trans-4-aminocyclohexyl)amino)methyl)cyclohexyl)-2-oxo-1,2-dihydropyrimidin-4-yl)piperazine-1-carboxamide hydrochloride salt] | < 8 µg/mL | > 32 µg/mL | < 8 µg/mL | < 8 µg/mL | < 0.5 µM | > 32 µg/mL | ≥ 1 µM | – | – | – | – | – |
| CN(CC1CC=C(n2ccc(NC(=O)N3CCN(C(=O)C(C)(C)N)CC3)nc2=O)CC1)[C@H]1CC[C@H](N)CC1 (single isomer, unassigned) [Compound 32, trans-4-(2-Amino-2-methylpropanoyl)-N-(1-(4-(((4-aminocyclohexyl)(methyl)amino)methyl)cyclohex-1-en-1-yl)-2-oxo-1,2-dihydropyrimidin-4-yl)piperazine-1-carboxamide hydrochloride salt] | < 8 µg/mL | > 32 µg/mL | < 8 µg/mL | 8 to 32 µg/mL | < 0.5 µM | > 32 µg/mL | ≥ 1 µM | – | – | – | – | – |
| CC(C)(N)C(=O)N1CCN(C(=O)Nc2ccn(C3=CCC(CN4C[C@@H]5[C@@H](N)[C@@H]5C4)CC3)c(=O)n2)CC1 (single isomer, unassigned) [Compound 33, 4-(2-Amino-2-methylpropanoyl)-N-(1-(4-(((exo)-6-amino-3-azabicyclo[3.1.0]hexan-3-yl)methyl)cyclohex-1-en-1-yl)-2-oxo-1,2-dihydropyrimidin-4-yl)piperazine-1-carboxamide hydrochloride salt] | – | – | – | – | < 0.5 µM | – | ≥ 1 µM | < 8 µg/mL | 8 to 32 µg/mL | < 8 µg/mL | < 8 µg/mL | > 32 µg/mL |
| CC(C)(N)C(=O)N1CCN(C(=O)Nc2ccn(C3=CCC(CN4CCC5(CC4)CC(N)C5)CC3)c(=O)n2)CC1 (single isomer, unassigned) [Compound 36] | – | – | – | – | < 0.5 µM | – | ≥ 1 µM | < 8 µg/mL | 8 to 32 µg/mL | < 8 µg/mL | < 8 µg/mL | 8 to 32 µg/mL |
| CC1(N)CCN(CC2CC=C(n3ccc(NC(=O)N4CCN(C(=O)C(C)(C)N)CC4)nc3=O)CC2)CC1 (single isomer, unassigned) [Compound 37, 4-(2-Amino-2-methylpropanoyl)-N-(1-(4-((4-amino-4-methylpiperidin-1-yl)methyl)cyclohex-1-en-1-yl)-2-oxo-1,2-dihydropyrimidin-4-yl)piperazine-1-carboxamide hydrochloride salt] | < 8 µg/mL | > 32 µg/mL | < 8 µg/mL | < 8 µg/mL | < 0.5 µM | > 32 µg/mL | ≥ 1 µM | – | – | – | – | – |
| CC(C)(N)C(=O)N1CCN(C(=O)Nc2ccn(C3=CCC(CN[C@H]4CC[C@H](N)CC4)CC3)c(=O)n2)CC1 (single isomer, unassigned) [Compound 39, trans-4-(2-Amino-2-methylpropanoyl)-N-(1-(4-(((4-aminocyclohexyl)amino)methyl)cyclohex-1-en-1-yl)-2-oxo-1,2-dihydropyrimidin-4-yl)piperazine-1-carboxamide hydrochloride salt] | < 8 µg/mL | > 32 µg/mL | < 8 µg/mL | < 8 µg/mL | < 0.5 µM | > 32 µg/mL | ≥ 1 µM | – | – | – | – | – |
| CC(C)(N)C(=O)N1CCN(C(=O)Nc2ccn(C3=CCC(CN4CCCC(N)CC4)CC3)c(=O)n2)CC1 (single isomer, unassigned) [Compound 41, 4-(2-Amino-2-methylpropanoyl)-N-(1-(4-((4-aminoazepan-1-yl)methyl)cyclohex-1-en-1-yl)-2-oxo-1,2-dihydropyrimidin-4-yl)piperazine-1-carboxamide hydrochloride salt] | < 8 µg/mL | > 32 µg/mL | < 8 µg/mL | < 8 µg/mL | < 0.5 µM | > 32 µg/mL | ≥ 1 µM | – | – | – | – | – |
| CC(C)(N)C(=O)N1CCN(C(=O)Nc2ccn(C3=CCC(CN4CC[C@H](CN)C4)CC3)c(=O)n2)CC1 (stereo in doubt) [Compound 23, (S)-4-(2-Amino-2-methylpropanoyl)-N-(1-(4-((3-(aminomethyl)pyrrolidin-1-yl)methyl)cyclohex-1-en-1-yl)-2-oxo-1,2-dihydropyrimidin-4-yl)piperazine-1-carboxamide hydrochloride salt] | < 8 µg/mL | > 32 µg/mL | < 8 µg/mL | 8 to 32 µg/mL | < 0.5 µM | > 32 µg/mL | ≥ 1 µM | – | – | – | – | – |
| CCN(CC1CC=C(n2ccc(NC(=O)N3CCN(C(=O)C(C)(C)N)CC3)nc2=O)CC1)[C@H]1CC[C@H](N)CC1 (stereo partly drawn) [Compound 31, trans-4-(2-Amino-2-methylpropanoyl)-N-(1-(4-(((4-aminocyclohexyl)(ethyl)amino)methyl)cyclohex-1-en-1-yl)-2-oxo-1,2-dihydropyrimidin-4-yl)piperazine-1-carboxamide hydrochloride salt] | < 8 µg/mL | – | < 8 µg/mL | < 8 µg/mL | < 0.5 µM | > 32 µg/mL | ≥ 1 µM | – | – | – | – | – |
